Measurements as given in US9919998B2, “Antibacterial agents: Nα-aroyl-N-aryl-phenylalaninamides” (priority 2014, dated 2018).
In brackets after ≈: the same amount, converted by molar mass.

Key:
Assay type in all cases: cell-based
[1] = tested on: Mycobacterium tuberculosis H37Rv; experiment: Microplate Alamar Blue assay (MABA) MIC, M. tuberculosis; conditions: read-out: MIC Mycobacterium tuberculosis H37Rv
Excerpt: (§1) Minimal inhibitory concentrations (MICs) in Mycobacterium tuberculosis H37Rv and Mycobacterium avium ATCC 25291 were quantified using microplate Alamar Blue assays as described (MABA; [Collins, L. & Franzblau, S. (1997) Microplate Alamar Blue assay versus BACTEC 460 system for high-throughput screening of compounds against Mycobacterium tuberculosis and Mycobacterium avium. Antimicrob. Agents Chemother. 41, 1004-1009]).

[2] = tested on: Mycobacterium avium ATCC 25291; experiment: Microplate Alamar Blue assay (MABA) MIC, M. avium; conditions: ATCC25291, M. avium ATCC 25291
Excerpt: as §1

[3] = tested on: Mycobacterium smegmatis ATCC 19420; experiment: Broth microdilution MIC, M. smegmatis; conditions: Mycolicibacterium smegmatis, ATCC19420, M. smegmatis ATCC 19420; read-out: MIC Mycobacterium smegmatis ATCC 19420
Excerpt: MICs in Mycobacterium smegmatis ATCC 19420 and Mycobacterium smegmatis ATCC 19420 derivatives were quantified using broth microdilution assays as described [Clinical and Laboratory Standards Institute (CLSI/NCCLS) (2009) Methods for Dilution Antimicrobial Susceptibility Tests for Bacteria That Grow Aerobically; Approved Standard, Eighth Edition. CLIS Document M07-A8 (CLIS, Wayne Pa.)].

[4] = tested on: Vero E6 ATCC CRL1586 cells; experiment: Mammalian-cell cytotoxicity, minimal cytotoxic concentration (CellTiter96)
Protocol: Minimal cytotoxic concentrations (MCCs) against mammalian cells in culture were determined using Vero E6 ATCC CRL1586 cells and the CellTiter96 assay kit (Promega, Inc.). […]

| SMILES | MIC [1] | MIC [2] | MIC [3] | MCC mammalian cells Vero E6 ATCC CRL1586 [4] |
| --- | --- | --- | --- | --- |
| O=C(NC(Cc1ccccc1)C(=O)Nc1cccc2c1OCCO2)c1cccc2[nH]ccc12 (stereo not shown) [IX-45, N-(1-((2,3-dihydrobenzo[b][1,4]dioxin-5-yl)amino)-1-oxo-3-phenyl-propan-2-yl)-1H-indole-4-carboxamide] | 3.12 µg/mL (≈ 7.08 µM) | 6.25 µg/mL (≈ 14.2 µM) | 0.39 µg/mL (≈ 0.883 µM) | 71 µg/mL |
| Cc1ccc(Cl)cc1NC(=O)C(Cc1ccc(O)cc1)NC(=O)c1ccccc1 (stereo not shown) [IX-51, N-(1-((5-chloro-2-methylphenyl)amino)-3-(4-hydroxyphenyl)-1-oxopropan-2-yl)benzamide] | 3.12 µg/mL (≈ 7.64 µM) | 6.25 µg/mL (≈ 15.3 µM) | 0.78 µg/mL (≈ 1.91 µM) | 60 µg/mL |
| Cc1ccc(Cl)cc1NC(=O)C(Cc1ccccc1)NC(=O)c1cccc2[nH]ccc12 (stereo not shown) [IX-53, N-(1-((5-chloro-2-methylphenyl)amino)-1-oxo-3-phenylpropan-2-yl)-1H-indole-4-carboxamide] | 3.12 µg/mL (≈ 7.24 µM) | 3.12 µg/mL (≈ 7.24 µM) | 0.39 µg/mL (≈ 0.903 µM) | 34 µg/mL |
| Cc1ccccc1NC(=O)C(Cc1ccc(O)cc1)NC(=O)c1ccccc1F (stereo not shown) [IX-54, 2-fluoro-N-(3-(4-hydroxyphenyl)-1-oxo-1-(o-tolylamino)propan-2-yl)benzamide] | 25 µg/mL (≈ 63.7 µM) | 50 µg/mL (≈ 127 µM) | 1.56 µg/mL (≈ 3.98 µM) | >100 µg/mL |
| COc1ccccc1NC(=O)C(Cc1ccccc1)NC(=O)c1ccccc1F (stereo not shown) [IX-56, 2-fluoro-N-(1-((2-methoxyphenyl)amino)-1-oxo-3-phenylpropan-2-yl)benzamide] | 3.12 µg/mL (≈ 7.96 µM) | 6.25 µg/mL (≈ 15.9 µM) | 0.39 µg/mL (≈ 0.994 µM) | 97 µg/mL |
| O=C(NC(Cc1ccccc1)C(=O)Nc1cccc2cnccc12)c1ccccc1F (stereo not shown) [IX-57, 2-fluoro-N-(1-(isoquinolin-5-ylamino)-1-oxo-3-phenylpropan-2-yl)benzamide] | 6.25 µg/mL (≈ 15.1 µM) | 12.5 µg/mL (≈ 30.2 µM) | 0.39 µg/mL (≈ 0.943 µM) | 79 µg/mL |
| O=C(NC(Cc1ccccc1)C(=O)Nc1cccc2c1OCCO2)c1ccccc1F (stereo not shown) [IX-59, N-(1-((2,3-dihydrobenzo[b][1,4]dioxin-5-yl)amino)-1-oxo-3-phenylpropan-2-yl)-2-fluorobenzamide] | 3.12 µg/mL (≈ 7.43 µM) | 6.25 µg/mL (≈ 14.9 µM) | 0.095 µg/mL (≈ 0.226 µM) | 49 µg/mL |
| Cc1ccccc1NC(=O)C(Cc1ccc(O)cc1)NC(=O)c1ccccc1Cl (stereo not shown) [IX-60, 2-chloro-N-(3-(4-hydroxyphenyl)-1-oxo-1-(o-tolylamino)propan-2-yl)benzamide] | 50 µg/mL (≈ 122 µM) | > 50 µg/mL | 3.12 µg/mL (≈ 7.64 µM) | >100 µg/mL |
| Cc1ccc(Cl)cc1NC(=O)C(Cc1ccccc1)NC(=O)c1ccccc1Cl (stereo not shown) [IX-61, 2-chloro-N-(1-((5-chloro-2-methylphenyl)amino)-1-oxo-3-phenylpropan-2-yl)benzamide] | > 50 µg/mL | > 50 µg/mL | 0.39 µg/mL (≈ 0.913 µM) | 9.2 µg/mL |
| COc1ccccc1NC(=O)C(Cc1ccccc1)NC(=O)c1ccccc1Cl (stereo not shown) [IX-62, 2-chloro-N-(1-((2-methoxyphenyl)amino)-1-oxo-3-phenylpropan-2-yl)benzamide] | 6.25 µg/mL (≈ 15.3 µM) | 6.25 µg/mL (≈ 15.3 µM) | 0.39 µg/mL (≈ 0.954 µM) | 12 µg/mL |
| O=C(NC(Cc1ccccc1)C(=O)Nc1cccc2cnccc12)c1ccccc1Cl (stereo not shown) [IX-63, 2-chloro-N-(1-(isoquinolin-5-ylamino)-1-oxo-3-phenylpropan-2-yl)benzamide] | 6.25 µg/mL (≈ 14.5 µM) | 12.5 µg/mL (≈ 29.1 µM) | 0.78 µg/mL (≈ 1.81 µM) | >100 µg/mL |
| O=C(NC(Cc1ccccc1)C(=O)Nc1cccc2ncccc12)c1ccccc1Cl (stereo not shown) [IX-64, 2-chloro-N-(1-oxo-3-phenyl-1-(quinolin-5-ylamino)propan-2-yl)benzamide] | 12.5 µg/mL (≈ 29.1 µM) | 50 µg/mL (≈ 116 µM) | 0.78 µg/mL (≈ 1.81 µM) | 78 µg/mL |
| O=C(NC(Cc1ccccc1)C(=O)Nc1cccc2c1OCCO2)c1ccccc1Cl (stereo not shown) [IX-65, 2-chloro-N-(1-((2,3-dihydrobenzo[b][1,4]dioxin-5-yl)amino)-1-oxo-3-phenylpropan-2-yl)benzamide] | 3.12 µg/mL (≈ 7.15 µM) | 6.25 µg/mL (≈ 14.3 µM) | 0.78 µg/mL (≈ 1.79 µM) | 18 µg/mL |
| Cc1ccc(Cl)cc1NC(=O)C(Cc1ccccc1)NC(=O)c1ccccc1C (stereo not shown) [IX-67, N-(1-((5-chloro-2-methylphenyl)amino)-1-oxo-3-phenylpropan-2-yl)-2-methylbenzamide] | 1.56 µg/mL (≈ 3.83 µM) | 1.56 µg/mL (≈ 3.83 µM) | 0.19 µg/mL (≈ 0.467 µM) | 8 µg/mL |
| COc1ccccc1NC(=O)C(Cc1ccccc1)NC(=O)c1ccccc1C (stereo not shown) [IX-68, N-(1-((2-methoxyphenyl)amino)-1-oxo-3-phenylpropan-2-yl)-2-methylbenzamide] | 3.12 µg/mL (≈ 8.04 µM) | 6.25 µg/mL (≈ 16.1 µM) | 0.39 µg/mL (≈ 1 µM) | 17 µg/mL |
| Cc1ccccc1C(=O)NC(Cc1ccccc1)C(=O)Nc1cccc2cnccc12 (stereo not shown) [IX-69, N-(1-(isoquinolin-5-ylamino)-1-oxo-3-phenylpropan-2-yl)-2-methylbenzamide] | 3.12 µg/mL (≈ 7.63 µM) | 3.12 µg/mL (≈ 7.63 µM) | 0.39 µg/mL (≈ 0.952 µM) | >100 µg/mL |
| Cc1ccccc1C(=O)NC(Cc1ccccc1)C(=O)Nc1cccc2ncccc12 (stereo not shown) [IX-70, 2-methyl-N-(1-oxo-3-phenyl-1-(quinolin-5-ylamino)propan-2-yl)benzamide] | 12.5 µg/mL (≈ 30.5 µM) | 25 µg/mL (≈ 61.1 µM) | 0.39 µg/mL (≈ 0.952 µM) | 63 µg/mL |
| Cc1ccccc1C(=O)NC(Cc1ccccc1)C(=O)Nc1cccc2c1OCCO2 (stereo not shown) [IX-71, N-(1-((2,3-dihydrobenzo[b][1,4]dioxin-5-yl)amino)-1-oxo-3-phenylpropan-2-yl)-2-methylbenzamide] | 1.56 µg/mL (≈ 3.75 µM) | 3.12 µg/mL (≈ 7.5 µM) | 0.39 µg/mL (≈ 0.936 µM) | 10 µg/mL |
| O=C(NC(Cc1ccccc1)C(=O)Nc1cccc2c1OCO2)c1ccccc1 (stereo not shown) [IX-72, N-(1-(benzo[d][1,3]dioxol-4-ylamino)-1-oxo-3-phenylpropan-2-yl)benzamide] | 6.25 µg/mL (≈ 16.1 µM) | 3.12 µg/mL (≈ 8.05 µM) | 0.095 µg/mL (≈ 0.245 µM) | 33 µg/mL |
| O=C(NC(Cc1ccccc1)C(=O)Nc1cc(F)cc2ncccc12)c1ccccc1 (stereo not shown) [IX-75, N-(1-((7-fluoroquinolin-5-yl)amino)-1-oxo-3-phenylpropan-2-yl)benzamide] | 0.78 µg/mL (≈ 1.89 µM) | 0.78 µg/mL (≈ 1.89 µM) | 0.39 µg/mL (≈ 0.943 µM) | >100 µg/mL |
| Cc1ccc(F)cc1NC(=O)C(Cc1ccccc1)NC(=O)c1cccs1 (stereo not shown) [IX-79, N-(1-((5-fluoro-2-methylphenyl)amino)-1-oxo-3-phenylpropan-2-yl)thiophene-2-carboxamide] | 1.56 µg/mL (≈ 4.08 µM) | 1.56 µg/mL (≈ 4.08 µM) | 0.19 µg/mL (≈ 0.497 µM) | 23 µg/mL |
| Cc1ccc(F)cc1NC(=O)C(Cc1ccccc1)NC(=O)c1cccc2[nH]ccc12 (stereo not shown) [IX-80, N-(1-((5-fluoro-2-methylphenyl)amino)-1-oxo-3-phenylpropan-2-yl)-1H-indole-4-carboxamide] | 1.56 µg/mL (≈ 3.75 µM) | 3.12 µg/mL (≈ 7.52 µM) | 0.195 µg/mL (≈ 0.469 µM) | 33 µg/mL |
| Cc1ccc(F)cc1NC(=O)C(Cc1ccccc1)NC(=O)c1ccccc1F (stereo not shown) [IX-81, 2-fluoro-N-(1-((5-fluoro-2-methylphenyl)amino)-1-oxo-3-phenylpropan-2-yl)benzamide] | 1.56 µg/mL (≈ 3.96 µM) | 3.12 µg/mL (≈ 7.92 µM) | 0.195 µg/mL (≈ 0.494 µM) | 38 µg/mL |
| Cc1ccc(F)cc1NC(=O)C(Cc1ccccc1)NC(=O)c1ccccc1Cl (stereo not shown) [IX-82, 2-chloro-N-(1-((5-fluoro-2-methylphenyl)amino)-1-oxo-3-phenylpropan-2-yl)benzamide] | 1.56 µg/mL (≈ 3.8 µM) | 3.12 µg/mL (≈ 7.61 µM) | 0.39 µg/mL (≈ 0.949 µM) | 20 µg/mL |
| Cc1ccc(F)cc1NC(=O)C(Cc1ccccc1)NC(=O)c1ccccc1C (stereo not shown) [IX-83, N-(1-((5-fluoro-2-methylphenyl)amino)-1-oxo-3-phenylpropan-2-yl)-2-methylbenzamide] | 0.78 µg/mL (≈ 2 µM) | 1.56 µg/mL (≈ 4 µM) | 0.195 µg/mL (≈ 0.499 µM) | 1.4 µg/mL |
| O=C(NC(Cc1ccccc1)C(=O)Nc1cccc2ncccc12)c1cccs1 (stereo not shown) [IX-85, N-(1-oxo-3-phenyl-1-(quinolin-5-ylamino)propan-2-yl)thiophene-2-carboxamide] | 12.5 µg/mL (≈ 31.1 µM) | 25 µg/mL (≈ 62.3 µM) | 0.39 µg/mL (≈ 0.971 µM) | 40 µg/mL |
| O=C(NC(Cc1ccccc1)C(=O)Nc1cccc2c1CCCC2)c1cccs1 (stereo not shown) [IX-86, N-(1-oxo-3-phenyl-1-((5,6,7,8-tetrahydronaphthalen-1-yl)amino)propan-2-yl)thiophene-2-carboxamide] | > 50 µg/mL | > 50 µg/mL | 0.78 µg/mL (≈ 1.93 µM) | 50 µg/mL |
| O=C(NC(Cc1ccccc1)C(=O)Nc1cccc2[nH]ccc12)c1ccccc1F (stereo not shown) [IX-91, N-(1-((1H-indol-4-yl)amino)-1-oxo-3-phenylpropan-2-yl)-2-fluorobenzamide] | 50 µg/mL (≈ 125 µM) | 50 µg/mL (≈ 125 µM) | 1.56 µg/mL (≈ 3.89 µM) | 65 µg/mL |
